# Tests used:
# Paclitaxel = compound: CC(=O)O[C@H]1C(=O)[C@@]2(C)[C@H]([C@H](OC(=O)c3ccccc3)[C@]3(O)C[C@H](OC(=O)[C@H](O)[C@@H](NC(=O)c4ccccc4)c4ccccc4)C(C)=C1C3(C)C)[C@]1(OC(C)=O)CO[C@@H]1C[C@@H]2O [Paclitaxel]
# BSJ-03-123 [1] = compound: T1, CC(=O)c1c(C)c2cnc(Nc3ccc(N4CCN(CCOCCOCCOCCNC(=O)COc5cccc6c5C(=O)N(C5CCC(=O)NC5=O)C6=O)CC4)cn3)nc2n(C2CCCC2)c1=O [BSJ-03-123]
# INK128/MLN0128 = compound: CC(C)n1nc(-c2ccc3oc(N)nc3c2)c2c(N)ncnc21 [INK128/MLN0128]
# [2] = compound: CCN1CCN(Cc2ccc(Nc3ncc(F)c(-c4cc(F)c5nc(C)n(C(C)C)c5c4)n3)nc2)CC1
# Neratinib/HKI272 [3] = compound: T2, CCOc1cc2ncc(C#N)c(Nc3ccc(OCc4ccccn4)c(Cl)c3)c2cc1NC(=O)/C=C/CN(C)C [Neratinib/HKI272]
# Volasertib/BI6727 = compound: CC[C@@H]1C(=O)N(C)c2cnc(Nc3ccc(C(=O)N[C@H]4CC[C@H](N5CCN(CC6CC6)CC5)CC4)cc3OC)nc2N1C(C)C [Volasertib/BI6727]
# LEE011/Ribociclib [4] = compound: T3, CN(C)C(=O)c1cc2cnc(Nc3ccc(N4CCNCC4)cn3)nc2n1C1CCCC1 [LEE011/Ribociclib]
# THZ531 = compound: CN(C)C/C=C/C(=O)Nc1ccc(C(=O)N2CCC[C@@H](Nc3ncc(Cl)c(-c4c[nH]c5ccccc45)n3)C2)cc1 [THZ531]
# ABT-737 = compound: CN(C)CC[C@H](CSc1ccccc1)Nc1ccc(S(=O)(=O)NC(=O)c2ccc(N3CCN(Cc4ccccc4-c4ccc(Cl)cc4)CC3)cc2)cc1[N+](=O)[O-] [ABT-737]
# [5] = compound: COc1ccc2c(c1)[C@]1(C[C@H]1c1ccc3c(/C=C/c4ccc(CN5C[C@@H](C)O[C@@H](C)C5)cc4)n[nH]c3c1)C(=O)N2
# Pictilisib/GDC0941 = compound: CS(=O)(=O)N1CCN(Cc2cc3nc(-c4cccc5[nH]ncc45)nc(N4CCOCC4)c3s2)CC1 [Pictilisib/GDC0941]
# Ceritinib/LDK378 = compound: Cc1cc(Nc2ncc(Cl)c(Nc3ccccc3S(=O)(=O)C(C)C)n2)c(OC(C)C)cc1C1CCNCC1 [Ceritinib/LDK378]
# Taselisib/GDC0032 = compound: Cc1nc(-c2cn3c(n2)-c2ccc(-c4cnn(C(C)(C)C(N)=O)c4)cc2OCC3)n(C(C)C)n1 [Taselisib/GDC0032]
# Tivantinib/ARQ197 = compound: O=C1NC(=O)[C@@H](c2cn3c4c(cccc24)CCC3)[C@@H]1c1c[nH]c2ccccc12 [Tivantinib/ARQ197]
# YKL-5-124 = compound: C=CC(=O)Nc1ccc(C(=O)Nc2[nH]nc3c2CN(C(=O)N[C@H](CN(C)C)c2ccccc2)C3(C)C)cc1 [YKL-5-124]; assay: GR value, 72 h; higher = faster growth (1 = untreated, <0 = killing);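 further: breast cancer and non-malignant breast epithelial lines, nine half-log doses, viable cells counted by Hoechst and LIVE/DEAD dye imaging versus time-zero plates and DMSO controls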
# BSJ-03-123 [6] = compound: T1, BSJ-03-123; assay: as above
# [7] = compound: CCN1CCN(Cc2ccc(Nc3ncc(F)c(-c4cc(F)c5nc(C)n(C(C)C)c5c4)n3)nc2)CC1; assay: as above
# Neratinib/HKI272 [8] = compound: T2, Neratinib/HKI272; assay: as above
# [9] = compound: CCc1cnn2c(NCc3ccc[n+]([O-])c3)cc(N3CCCC[C@H]3CCO)nc12; assay: as above
# LEE011/Ribociclib [10] = compound: T3, LEE011/Ribociclib; assay: as above
# 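Wherever GR50, 72 h is given: breast cancer and non-malignant breast epithelial cell lines, Deep Dye Drop or Dye Drop imaging, nine half-log doses, GR normalized to time-zero plates and DMSO-only controls.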
cell line,measurement,setting,value
SUM159,"GR50, 72 h",Paclitaxel,0.00542 µM
same,"GR50, 72 h",BSJ-03-123 [1],1.94 µM
same,"GR50, 72 h",INK128/MLN0128,0.0561 µM
same,"GR50, 72 h",[2],0.565 µM
same,"GR50, 72 h",Neratinib/HKI272 [3],> 3.16 µM
same,"GR50, 72 h",Volasertib/BI6727,0.0247 µM
same,"GR50, 72 h",LEE011/Ribociclib [4],9.31 µM
same,"GR50, 72 h",THZ531,> 1 µM
same,"GR50, 72 h",ABT-737,> 10 µM
same,"GR50, 72 h",[5],0.00426 µM
same,"GR50, 72 h",Pictilisib/GDC0941,4.53 µM
same,"GR50, 72 h",Ceritinib/LDK378,2.1 µM
same,"GR50, 72 h",Taselisib/GDC0032,0.182 µM
same,"GR50, 72 h",Tivantinib/ARQ197,0.408 µM
same,GR value,YKL-5-124; 0.001 µM,0.554 GR
same,GR value,YKL-5-124; 0.003162 µM,0.292 GR
same,GR value,YKL-5-124; 0.01 µM,0.169 GR
same,GR value,YKL-5-124; 0.03162 µM,0.149 GR
same,GR value,YKL-5-124; 0.1 µM,0.136 GR
same,GR value,YKL-5-124; 0.3162 µM,0.0731 GR
same,GR value,YKL-5-124; 1 µM,0.0819 GR
same,GR value,YKL-5-124; 3.162 µM,0.0501 GR
same,GR value,YKL-5-124; 10 µM,-0.146 GR
same,GR value,BSJ-03-123 [6]; 0.001 µM,0.918 GR
same,GR value,BSJ-03-123 [6]; 0.003162 µM,0.925 GR
same,GR value,BSJ-03-123 [6]; 0.01 µM,0.897 GR
same,GR value,BSJ-03-123 [6]; 0.03162 µM,0.826 GR
same,GR value,BSJ-03-123 [6]; 0.1 µM,0.826 GR
same,GR value,BSJ-03-123 [6]; 0.3162 µM,0.797 GR
same,GR value,BSJ-03-123 [6]; 1 µM,0.687 GR
same,GR value,BSJ-03-123 [6]; 3.162 µM,0.526 GR
same,GR value,BSJ-03-123 [6]; 10 µM,-0.042 GR
same,GR value,[7]; 0.001 µM,0.989 GR
same,GR value,[7]; 0.003162 µM,0.962 GR
same,GR value,[7]; 0.01 µM,0.897 GR
same,GR value,[7]; 0.03162 µM,0.773 GR
same,GR value,[7]; 0.1 µM,0.662 GR
same,GR value,[7]; 0.3162 µM,0.558 GR
same,GR value,[7]; 1 µM,0.405 GR
same,GR value,[7]; 3.162 µM,0.308 GR
same,GR value,[7]; 10 µM,-0.0742 GR
same,GR value,Neratinib/HKI272 [8]; 0.0003162 µM,1.01 GR
same,GR value,Neratinib/HKI272 [8]; 0.001 µM,1.02 GR
same,GR value,Neratinib/HKI272 [8]; 0.003162 µM,1.02 GR
same,GR value,Neratinib/HKI272 [8]; 0.01 µM,0.994 GR
same,GR value,Neratinib/HKI272 [8]; 0.03162 µM,0.96 GR
same,GR value,Neratinib/HKI272 [8]; 0.1 µM,0.927 GR
same,GR value,Neratinib/HKI272 [8]; 0.3162 µM,0.851 GR
same,GR value,Neratinib/HKI272 [8]; 1 µM,0.705 GR
same,GR value,Neratinib/HKI272 [8]; 3.162 µM,0.507 GR
same,GR value,[9]; 0.0001 µM,1.01 GR
same,GR value,[9]; 0.0003162 µM,1.01 GR
same,GR value,[9]; 0.001 µM,1.02 GR
same,GR value,[9]; 0.003162 µM,1.02 GR
same,GR value,[9]; 0.01 µM,0.937 GR
same,GR value,[9]; 0.03162 µM,-0.0092 GR
same,GR value,[9]; 0.1 µM,-0.0413 GR
same,GR value,[9]; 0.3162 µM,-0.0777 GR
same,GR value,[9]; 1 µM,-0.119 GR
same,GR value,LEE011/Ribociclib [10]; 0.001 µM,0.942 GR
same,GR value,LEE011/Ribociclib [10]; 0.003162 µM,0.892 GR
same,GR value,LEE011/Ribociclib [10]; 0.01 µM,0.835 GR
same,GR value,LEE011/Ribociclib [10]; 0.03162 µM,0.814 GR
same,GR value,LEE011/Ribociclib [10]; 0.1 µM,0.786 GR
same,GR value,LEE011/Ribociclib [10]; 0.3162 µM,0.73 GR
same,GR value,LEE011/Ribociclib [10]; 1 µM,0.769 GR
same,GR value,LEE011/Ribociclib [10]; 3.162 µM,0.63 GR
same,GR value,LEE011/Ribociclib [10]; 10 µM,0.449 GR
SKBR3,"GR50, 72 h",Paclitaxel,0.00191 µM
same,"GR50, 72 h",BSJ-03-123 [1],1.02 µM
same,"GR50, 72 h",INK128/MLN0128,0.00265 µM
same,"GR50, 72 h",[2],0.0353 µM
same,"GR50, 72 h",Neratinib/HKI272 [3],0.00165 µM
same,"GR50, 72 h",Volasertib/BI6727,0.00545 µM
same,"GR50, 72 h",LEE011/Ribociclib [4],6.14 µM
same,"GR50, 72 h",THZ531,0.0273 µM
same,"GR50, 72 h",ABT-737,> 10 µM
same,"GR50, 72 h",[5],0.00188 µM
same,"GR50, 72 h",Pictilisib/GDC0941,0.114 µM
same,"GR50, 72 h",Ceritinib/LDK378,0.985 µM
same,"GR50, 72 h",Taselisib/GDC0032,0.00617 µM
same,"GR50, 72 h",Tivantinib/ARQ197,0.273 µM
same,GR value,YKL-5-124; 0.001 µM,0.455 GR
same,GR value,YKL-5-124; 0.003162 µM,0.198 GR
same,GR value,YKL-5-124; 0.01 µM,0.164 GR
same,GR value,YKL-5-124; 0.03162 µM,0.137 GR
same,GR value,YKL-5-124; 0.1 µM,0.102 GR
same,GR value,YKL-5-124; 0.3162 µM,-0.123 GR
same,GR value,YKL-5-124; 1 µM,0.0239 GR
same,GR value,YKL-5-124; 3.162 µM,-0.0117 GR
same,GR value,YKL-5-124; 10 µM,-0.572 GR
same,GR value,BSJ-03-123 [6]; 0.001 µM,0.911 GR
same,GR value,BSJ-03-123 [6]; 0.003162 µM,0.855 GR
same,GR value,BSJ-03-123 [6]; 0.01 µM,0.825 GR
same,GR value,BSJ-03-123 [6]; 0.03162 µM,0.79 GR
same,GR value,BSJ-03-123 [6]; 0.1 µM,0.644 GR
same,GR value,BSJ-03-123 [6]; 0.3162 µM,0.75 GR
same,GR value,BSJ-03-123 [6]; 1 µM,0.506 GR
same,GR value,BSJ-03-123 [6]; 3.162 µM,0.514 GR
same,GR value,BSJ-03-123 [6]; 10 µM,-0.35 GR
same,GR value,[7]; 0.001 µM,0.874 GR
same,GR value,[7]; 0.003162 µM,0.866 GR
same,GR value,[7]; 0.01 µM,0.623 GR
same,GR value,[7]; 0.03162 µM,0.491 GR
same,GR value,[7]; 0.1 µM,0.402 GR
same,GR value,[7]; 0.3162 µM,0.337 GR
same,GR value,[7]; 1 µM,0.24 GR
same,GR value,[7]; 3.162 µM,0.27 GR
same,GR value,[7]; 10 µM,0.151 GR
same,GR value,Neratinib/HKI272 [8]; 0.0003162 µM,0.841 GR
same,GR value,Neratinib/HKI272 [8]; 0.001 µM,0.631 GR
same,GR value,Neratinib/HKI272 [8]; 0.003162 µM,0.264 GR
same,GR value,Neratinib/HKI272 [8]; 0.01 µM,0.0804 GR
same,GR value,Neratinib/HKI272 [8]; 0.03162 µM,0.0019 GR
same,GR value,Neratinib/HKI272 [8]; 0.1 µM,-0.0509 GR
same,GR value,Neratinib/HKI272 [8]; 0.3162 µM,-0.163 GR
same,GR value,Neratinib/HKI272 [8]; 1 µM,-0.252 GR
same,GR value,Neratinib/HKI272 [8]; 3.162 µM,-0.246 GR
same,GR value,[9]; 0.0001 µM,0.95 GR
same,GR value,[9]; 0.0003162 µM,0.921 GR
same,GR value,[9]; 0.001 µM,1.07 GR
same,GR value,[9]; 0.003162 µM,0.933 GR
same,GR value,[9]; 0.01 µM,0.0102 GR
same,GR value,[9]; 0.03162 µM,-0.581 GR
same,GR value,[9]; 0.1 µM,-0.6 GR
same,GR value,[9]; 0.3162 µM,-0.628 GR
same,GR value,[9]; 1 µM,-0.579 GR
same,GR value,LEE011/Ribociclib [10]; 0.001 µM,0.897 GR
same,GR value,LEE011/Ribociclib [10]; 0.003162 µM,0.728 GR
same,GR value,LEE011/Ribociclib [10]; 0.01 µM,0.774 GR
same,GR value,LEE011/Ribociclib [10]; 0.03162 µM,0.766 GR
same,GR value,LEE011/Ribociclib [10]; 0.1 µM,0.776 GR
same,GR value,LEE011/Ribociclib [10]; 0.3162 µM,0.471 GR
same,GR value,LEE011/Ribociclib [10]; 1 µM,0.582 GR
same,GR value,LEE011/Ribociclib [10]; 3.162 µM,0.429 GR
same,GR value,LEE011/Ribociclib [10]; 10 µM,0.586 GR
